Laboratory results taken from ChEMBL document CHEMBL5523719, “Structure-activity relationship study of new carbazole sulfonamide derivatives as anticancer agents with dual-target mechanism” (Eur J Med Chem, 2024).

What was measured:
KB = test: Antiproliferation activity against human KB cells measured after 72 hrs incubation by MTT assay; assay type: functional, cell-based
L02 = test: Antiproliferation activity against human L02 cells measured after 72 hrs incubation by MTT assay; assay type: functional, cell-based; details: L02, 72 h
NCI-H460 = test: Antiproliferation activity against human NCI-H460 cells measured after 72 hrs incubation by MTT assay; assay type: functional, cell-based; details: NCI-H460, 72 h
MIA PaCa-2 = test: Antiproliferation activity against human MIA PaCa-2 cells measured after 72 hrs incubation by MTT assay; assay type: functional, cell-based; details: MIA PaCa-2, 72 h
MDA-MB-231 = test: Antiproliferation activity against human MDA-MB-231 cells measured after 72 hrs incubation by MTT assay; assay type: functional, cell-based; details: MDA-MB-231, 72 h
Bel-7402 = test: Antiproliferation activity against human Bel-7402 cells measured after 72 hrs incubation by MTT assay; assay type: functional, cell-based; details: Bel-7402, 72 h
[1] = Solubility of the compound; assay type: physicochemical

IC50 (KB) [nM] | IC50 (NCI-H460) [nM] | IC50 (MIA PaCa-2) [nM] | IC50 (MDA-MB-231) [nM] | IC50 (Bel-7402) [nM] | solubility [1] [µg/mL] | SMILES | IC50 (L02) [nM]
– | – | – | – | 5020 | 11000 | COc1ccc(NS(=O)(=O)c2ccc3c(c2)c2ccc(NC(=O)CCN(C)C)cc2n3C)c(OC)n1.Cl | –
– | – | – | – | 8470 | 6800 | COc1ccc(NS(=O)(=O)c2ccc3c(c2)c2ccc(NC(=O)CCCN4CCOCC4)cc2n3C)c(OC)n1.Cl | –
– | – | – | – | 8210 | 4700 | COc1ccc(NS(=O)(=O)c2ccc3c(c2)c2ccc(NC(=O)CN4CCCCC4)cc2n3C)c(OC)n1.Cl | –
– | – | – | – | 18700 | 27000 | COc1ccc(NS(=O)(=O)c2ccc3c(c2)c2ccc(NC(=O)CN4CCN(C)CC4)cc2n3C)c(OC)n1.Cl | –
– | – | – | – | 13700 | 13000 | COc1ccc(NS(=O)(=O)c2ccc3c(c2)c2ccc(NC(=O)CCN4CCOCC4)cc2n3C)c(OC)n1.Cl | –
– | – | – | – | 1400 | 25000 | COc1ccc(NS(=O)(=O)c2ccc3c(c2)c2ccc(NC(=O)CN(C)C)cc2n3C)c(OC)n1.Cl | –
– | – | – | – | 1200 | 500 | COc1ccc(NS(=O)(=O)c2ccc3c(c2)c2ccc(NC(=O)CN)cc2n3C)c(OC)n1.Cl | –

More lines, now with the values behind:

SMILES | IC50 (KB) [nM] | IC50 (NCI-H460) [nM] | IC50 (MIA PaCa-2) [nM] | IC50 (MDA-MB-231) [nM] | IC50 (Bel-7402) [nM] | solubility [1] [µg/mL] | IC50 (L02) [nM]
COc1cc(OC)c(NS(=O)(=O)c2ccc3c(c2)c2ccc(N)cc2n3C)cc1Cl | 46 | 47.5 | 13.3 | 29 | – | – | 18
COc1cc(NS(=O)(=O)c2ccc3c(c2)c2ccc(N)cc2n3C)cc(OC)c1OC | 34.5 | 13.1 | 24.4 | 16.1 | – | – | 21
COc1cc(OC)c(NS(=O)(=O)c2ccc3c(c2)c2ccc(N)cc2n3C)c(OC)c1 | 18.1 | 14 | 31 | 39.9 | – | – | 30.9
COc1ccc(NS(=O)(=O)c2ccc3c(c2)c2ccc(N)cc2n3C)c(OC)c1 | – | – | 57.2 | 155 | – | – | 42.2
COc1ccc(NS(=O)(=O)c2ccc3c(c2)c2ccc(N)cc2n3C)cc1 | > 400 | > 400 | > 400 | > 400 | – | – | > 400
COc1ccc(OC)c(NS(=O)(=O)c2ccc3c(c2)c2ccc(N)cc2n3C)c1 | 18.3 | 25.5 | 19.9 | 18.9 | – | – | 11.6
COc1cc(OC)c(NS(=O)(=O)c2ccc3c(c2)c2ccc(O)cc2n3C)cc1Cl | 70 | 14.5 | 55.5 | 41.6 | – | – | 33
COc1cc(NS(=O)(=O)c2ccc3c(c2)c2ccc(O)cc2n3C)cc(OC)c1OC | 32 | 34.6 | 14.6 | 39.2 | – | – | 43.1
COc1cc([C@@H]2c3cc4c(cc3[C@H](O)[C@H]3COC(=O)[C@H]23)OCO4)cc(OC)c1OC [PODOFILOX] | 3.21 | 24.6 | 19.7 | 80.5 | 40 | – | 32.8
Cn1c2ccc(S(=O)(=O)Nc3cccc(-c4ccn[nH]4)c3)cc2c2ccc(N)cc21 | 244 | 325 | 61.2 | 72.5 | – | – | 94.5
COc1ccc(NS(=O)(=O)c2ccc3c(c2)c2ccc(O)cc2n3C)c(OC)c1 | 78.8 | 40.5 | 52.8 | 82.8 | – | – | 54.4
COc1ccc(NS(=O)(=O)c2ccc3c(c2)c2ccc(NC(=O)[C@@H](N)Cc4ccc(O)cc4)cc2n3C)c(OC)n1.Cl | – | – | – | – | 1880 | 2000 | –
COc1ccc(OC)c(NS(=O)(=O)c2ccc3c(c2)c2ccc(O)cc2n3C)c1 | 17.5 | 12.5 | 0.85 | 0.93 | – | – | 45.6
CN1CCN(Cc2ccc(NS(=O)(=O)c3ccc4c(c3)c3ccc(O)cc3n4C)cc2C(F)(F)F)CC1 | > 400 | > 400 | > 400 | – | – | – | > 400
COc1cc(NS(=O)(=O)c2ccc3c(c2)c2ccc(N)cc2n3C)c(OC)cc1N | 80.2 | 76.3 | 33.2 | 85.7 | – | – | 30.9
